From US20150328193A1, “TREATMENT OF MTOR HYPERACTIVE RELATED DISEASES AND DISORDERS” (THE BRIGHAM AND WOMEN'S HOSPITAL, INC., priority 2012, published 2015)
pIC50: −log10 of the molar value.

What was measured:
621-101 cells = assay: Follow-up imaging of cell death/proliferation in 621-101 cells; type: cell-based, human
Protocol: 621-101 cells were pretreated for two hours with either DMSO (top two panels) or rapamycin (20 nM) bottom two panels) followed by the addition of fresh DMSO (top left), fresh rapamycin (bottom left), chelerythrine chloride (1 uM, top right), or rapamycin and chelerythrine chloride (bottom right). […] 4× magnification.

[1] = test system: wild-type mouse embryonic fibroblasts (MEFs); assay: Chelerythrine chloride treatment of wild-type mouse embryonic fibroblasts; type: cell-based; conditions: 10 uM, 30 hours
protein kinase C (PKC) = conditions: cited from earlier work
[2] = test system: 621-101 cells (TSC2-null, derived from a LAM patient); assay: High-throughput screen of known bioactives in 621-101 cells, ATP levels ([…] GLO) as cell viability, with or without rapamycin pretreatment; type: cell-based, human
Protocol: Rapamycin was used at 20 nM and the screen compounds at 20 uM.
Cells are then pretreated with either Rapamycin (20 nM) or DMSO control in duplicate for two hours. Compound libraries are then added at the ICCB and allowed to incubate for 48-72 h. […] Treatment with staurosporine (1-2 uM) represents a positive control for cell death.
The inventors screened the Known Bioactives Collection at the ICCB which consists of approximately 7,000 compounds.

[3] = test system: Tsc2-null mouse embryonic fibroblasts (MEFs); assay: Chelerythrine chloride treatment of Tsc2-null mouse embryonic fibroblasts; type: cell-based; conditions: 10 uM, 30 hours

## COc1ccc2c(c[n+](C)c3c4cc5c(cc4ccc23)OCO5)c1OC [chelerythrine chloride]
621-101 cells; 24 h, 1 uM, rapamycin 20 nM pretreatment two hours
  Effect on 621-101 cells in combination with rapamycin: effect on cells is reduced
621-101 cells; 24 h post drug exposure, 1 uM, DMSO pretreatment
  621-101 cell proliferation: inhibits 621-101 cell proliferation
621-101 cells; 96 h post drug exposure
  621-101 cell proliferation: inhibits 621-101 cell proliferation
[1]
  Effect on wild-type MEFs: minimal effect
Protein kinase C (PKC)
  pIC50: 6.18
[2]; Rapamycin 20 nM, screen compounds 20 uM
  Effect alone versus in combination with rapamycin (single agent potential): protected by rapamycin
[2]; used individually in the absence of rapamycin
  Inducing cell death in TSC2-null LAM cells as single agent: surprisingly effective at inducing cell death
[3]
  Effect on Tsc2-null MEFs: dramatic effect
  Selectivity for Tsc2-null versus wild-type MEFs: selective to Tsc2-null cells
